Numbering of substitutions follows the chain as printed.
Key:
hT1R1 H71A = molecular target: T1, hT1R1 H71A (Homo sapiens, UniProt Q7RTX1, H71A); experiment: Mutagenesis study, hT1R1 mutant H71A; format: cell-based; details: H71 mutation
T1 construct: expressed in transfected cells; host or cells: HEK293, transient transfection
T1 sequence (Q7RTX1 21-841 H71A): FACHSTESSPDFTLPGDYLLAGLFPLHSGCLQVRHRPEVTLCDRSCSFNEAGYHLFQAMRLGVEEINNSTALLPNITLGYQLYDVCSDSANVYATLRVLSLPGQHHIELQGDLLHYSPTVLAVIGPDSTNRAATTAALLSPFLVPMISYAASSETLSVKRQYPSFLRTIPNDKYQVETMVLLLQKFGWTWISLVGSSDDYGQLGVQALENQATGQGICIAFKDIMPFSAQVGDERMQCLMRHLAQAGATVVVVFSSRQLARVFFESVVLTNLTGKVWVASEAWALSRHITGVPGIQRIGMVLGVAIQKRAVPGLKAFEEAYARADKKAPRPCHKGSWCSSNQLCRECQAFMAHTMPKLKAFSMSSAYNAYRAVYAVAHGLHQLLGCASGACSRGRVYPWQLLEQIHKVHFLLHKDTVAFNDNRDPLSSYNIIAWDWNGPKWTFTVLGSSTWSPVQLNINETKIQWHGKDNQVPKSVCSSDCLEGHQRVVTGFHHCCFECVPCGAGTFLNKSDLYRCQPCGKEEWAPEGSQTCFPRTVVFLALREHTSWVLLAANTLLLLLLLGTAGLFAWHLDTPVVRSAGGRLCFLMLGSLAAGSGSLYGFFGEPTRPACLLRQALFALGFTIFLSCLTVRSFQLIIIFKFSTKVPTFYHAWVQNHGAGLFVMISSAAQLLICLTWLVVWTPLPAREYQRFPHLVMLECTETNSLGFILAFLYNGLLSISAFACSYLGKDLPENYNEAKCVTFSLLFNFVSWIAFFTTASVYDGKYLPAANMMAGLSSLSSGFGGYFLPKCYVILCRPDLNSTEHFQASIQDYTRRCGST
T1 sequence (Q923K1 21-858 partner): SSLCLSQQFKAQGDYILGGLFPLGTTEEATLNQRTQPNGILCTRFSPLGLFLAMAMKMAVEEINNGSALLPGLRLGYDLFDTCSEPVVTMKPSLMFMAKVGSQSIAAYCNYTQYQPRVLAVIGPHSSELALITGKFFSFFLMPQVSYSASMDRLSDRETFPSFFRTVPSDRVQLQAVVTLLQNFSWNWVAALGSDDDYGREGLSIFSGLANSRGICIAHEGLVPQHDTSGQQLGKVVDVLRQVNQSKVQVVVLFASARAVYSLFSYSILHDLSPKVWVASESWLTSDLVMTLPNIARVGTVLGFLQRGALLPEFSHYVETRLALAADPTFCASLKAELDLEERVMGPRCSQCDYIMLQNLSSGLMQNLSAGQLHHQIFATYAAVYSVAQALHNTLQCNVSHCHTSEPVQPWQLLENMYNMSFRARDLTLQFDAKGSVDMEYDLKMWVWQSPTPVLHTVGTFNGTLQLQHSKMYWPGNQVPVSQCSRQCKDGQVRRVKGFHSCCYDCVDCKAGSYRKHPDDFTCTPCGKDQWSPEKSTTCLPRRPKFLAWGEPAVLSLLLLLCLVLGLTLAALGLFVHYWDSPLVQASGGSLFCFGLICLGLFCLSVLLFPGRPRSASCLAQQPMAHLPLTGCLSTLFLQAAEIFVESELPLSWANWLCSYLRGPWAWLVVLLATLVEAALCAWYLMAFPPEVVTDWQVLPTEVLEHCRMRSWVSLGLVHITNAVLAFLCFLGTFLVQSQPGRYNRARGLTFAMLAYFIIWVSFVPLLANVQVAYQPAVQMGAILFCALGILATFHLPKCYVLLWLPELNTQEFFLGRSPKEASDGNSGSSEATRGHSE
Text: (§1) In order to further define the interaction sites of umami stimuli, we performed site-directed mutagenesis on human T1R1 VFT. The mutagenesis was done using the routine PCR-based method. […] were transiently transfected into HEK293 cell together with the rat T1R3 wild type cDNA, and the transfected cells were characterized using an automated FLIPR machine or a calcium imaging system as described in our previous patent applications.

hT1R1 Y220A = molecular target: T2, hT1R1 Y220A (Homo sapiens, UniProt Q7RTX1, Y220A); experiment: Mutagenesis study, hT1R1 mutant Y220A; format: cell-based; details: Y220 mutant, FIG. 11
T2 construct: expressed in transfected cells; host or cells: HEK293, transient transfection
T2 sequence (Q7RTX1 21-841 Y220A): T1 sequence (Q7RTX1 21-841 H71A) with A51H, Y200A
T2 sequence (Q923K1 21-858 partner): T1 sequence (Q923K1 21-858 partner)
Text: as §1

| Compound | enhancement activity of GMP (hT1R1 H71A) | activity against L-Glu (hT1R1 Y220A) |
| --- | --- | --- |
| Nc1nc2c(ncn2[C@@H]2O[C@H](COP(=O)(O)O)[C@@H](O)[C@H]2O)c(=O)[nH]1 [GMP, guanosine-5′-monophosphate] | similarly affected |  |
| N[C@@H](CCC(=O)O)C(=O)O [L-Glu, L-glutamate] |  | significant reduced activity |

Reference: US20080306076A1, “MODULATION OF CHEMOSENSORY RECEPTORS AND LIGANDS ASSOCIATED THEREWITH” (SENOMYX, INC., priority 2007, published 2008)
